For series [1], the target named is human PAI-1 (Homo sapiens, UniProt P05121). In words: Assay for determining IC50 of inhibition of PAI-1 (Antibody Assay). The conditions noted are these: footnote a: determined by the Antibody Assay; active PAI-1 bound to tPA-coated plate, pH 7.5. The series is classed as binding. The procedure: Assay for Determining IC50 of Inhibition of PAI-1
This assay is based upon the non-SDS dissociable interaction between tPA and active PAI-1. Assay plates are initially coated with human tPA (10 μg/ml). Test compounds are dissolved in DMSO at 10 mM, then diluted with physiologic buffer (pH 7.5) to a final concentration of 1-50 μM. The test compounds are incubated with human PAI-1 (50 ng/ml) for 15 minutes at room temperature. The tPA-coated plate is washed with a solution of 0.05% Tween 20 and 0.1% BSA, then the plate is blocked with a solution of 3% BSA. An aliquot of the test compound/PAI-1 solution is then added to the tPA-coated plate, incubated at room temperature for 1 hour, and washed. Active PAI-1 bound to the plate is assessed by adding an aliquot of a 1:1000 dilution of the 33B8 monoclonal antibody against human PAI-1, and incubating the plate at room temperature for 1 hour (Molecular Innovations, Royal Oak, Mich.). The plate is again washed, and a solution of goat anti-mouse IgG-alkaline phosphatase conjugate is added at a 1:50,000 dilution in goat serum. The plate is incubated 30 minutes at room temperature, washed, and a solution of alkaline phosphatase substrate is added. The plate is incubated 45 minutes at room temperature, and color development is determined at OD405nm. The quantitation of active PAI-1 bound to tPA at varying concentrations of the test compound is used to determine the IC50. Results are analyzed using a logarithmic best-fit equation. The assay sensitivity is 5 ng/ml of human PAI-1 as determined from a standard curve ranging from 0-100 ng/ml.

Series [2] deals with T1, recombinant human plasminogen activator inhibitor-1 (PAI-1) (Homo sapiens, UniProt P05121).
T1 construct: purchased Molecular Innovations, Royal Oak, Mich
T1 sequence (P05121 24-402): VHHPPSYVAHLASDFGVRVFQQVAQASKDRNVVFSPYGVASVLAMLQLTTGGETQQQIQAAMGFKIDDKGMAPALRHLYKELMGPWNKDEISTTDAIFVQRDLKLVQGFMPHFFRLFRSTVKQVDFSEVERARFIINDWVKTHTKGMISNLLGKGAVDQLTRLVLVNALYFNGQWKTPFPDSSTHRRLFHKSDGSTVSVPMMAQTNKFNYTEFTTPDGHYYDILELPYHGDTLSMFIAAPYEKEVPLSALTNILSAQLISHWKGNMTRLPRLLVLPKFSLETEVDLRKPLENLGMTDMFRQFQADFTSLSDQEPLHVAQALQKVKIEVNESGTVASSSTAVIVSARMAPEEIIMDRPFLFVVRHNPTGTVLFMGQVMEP
In words: Primary Screen for the PAI-1 Inhibition (chromogenic tPA assay). The class given is biochemical. The note with it: for inhibition at 25 µM: 25 μM test compound; for IC50: footnote b: determined by a modification of the Primary Screen for PAI-1 Inhibition. As for the experimental part:
Primary Screen for the PAI-1 Inhibition
Test compounds are dissolved in DMSO at a final concentration of 10 mM, then diluted 100×in physiologic buffer. The inhibitory assay is initiated by the addition of the test compound (1-100 μM final concentration, maximum DMSO concentration of 0.2%) in a pH 6.6 buffer containing 140 nM recombinant human plasminogen activator inhibitor-1 (PAI-1; Molecular Innovations, Royal Oak, Mich.). Following a 1 hour incubation at room temperature, 70 nM of recombinant human tissue plasminogen activator (tPA) is added, and the combination of the test compound, PAI-1 and tPA is incubated for an additional 30 minutes. Following the second incubation, Spectrozyme-tPA (American Diagnostica, Greenwich, Conn.), a chromogenic substrate for tPA, is added and absorbance read at 405 nm at 0 and 60 minutes. Relative PAI-1 inhibition is equal to the residual tPA activity in the presence of the test compounds and PAI-1. Control treatments include the complete inhibition of tPA by PAI-1 at the molar ratio employed (2:1), and the absence of any effect of the test compound on tPA alone.

Structures are written as SMILES. Where a name gives a salt, the structure may show the parent alone.

human PAI-1, sequence (P05121 24-402): as above

As to `CCCCC(=O)c1c(-c2ccc3c(-c4ccccc4)c(OCC(=O)[O-])ccc3c2)oc2ccccc12.[Na+]` [Example 14, 2-{[6-(3-Pentanoyl-1-benzofuran-2-yl)-1-phenyl-2-naphthyl]oxy}acetic acid, sodium salt], the melting point (commonly the temperature of the solid-liquid transition) is 272 to 273 °C (dec.). The IC50 (as a rule, the concentration that gives 50% inhibition) in series [1] is 2.7 µM.
`CCCCC(=O)c1c(-c2ccc3c(C)c(OCc4nnn[nH]4)ccc3c2)oc2ccccc12` [Example 20, 1-{2-[5-Methyl-6-(1H-1,2,3,4-tetraazol-5-ylmethoxy)-2-naphthyl]-1-benzofuran-3-yl}-1-pentanone] had a melting point of 162 to 164 °C. In series [1], this compound showed a half-inhibitory concentration (IC50) of 24.2 µM.
In turn, `CCCCC(=O)c1c(-c2ccc3c(C)c(OCC(=O)O)ccc3c2)oc2ccccc12` [Example 22, 2-{[1-Methyl-6-(3-pentanoyl-1-benzofuran-2-yl)-2-naphthyl]oxy}acetic acid] showed a melting point of 153 to 155 °C. This compound returned a half-maximal inhibitory concentration (IC50) in series [1] of 13.3 µM.
Compound `CCCCCc1c(-c2ccc3cc(OCc4nnn[nH]4)ccc3c2)oc2ccccc12` [Example 34, 5-[6-(3-Pentyl-benzofuran-2-yl)-naphthalen-2-yloxymethyl]-1H-tetrazole] returned a melting point of 178 to 180 °C. In addition, in series [1], 8.17 µM corresponded to half-maximal inhibition (IC50).
The matching figures for `CCCCC(=O)c1c(-c2ccc3c(Cl)c(OCc4nnn[nH]4)ccc3c2)oc2ccccc12` [Example 25, 1-{2-[5-Chloro-6-(1H-1,2,3,4-tetraazol-5-ylmethoxy)-2-naphthyl]-1-benzofuran-3-yl}-1-pentanone]: 168 to 169 °C and 14 µM.
Compound `O=C(O)COc1ccc2cc(-c3oc4ccccc4c3C(=O)CC3CCCC3)ccc2c1Br` [Example 17, 2-({1-Bromo-6-[3-(2-cyclopentylacetyl)-1-benzofuran-2-yl]-2-naphthyl}oxy)acetic acid] returned a melting point of 150 to 152 °C. Also, the concentration for half-maximal inhibition (IC50) in series [1] is 2.7 µM.
The corresponding values for `CC(C)CC(=O)c1c(-c2ccc3c(Br)c(OCc4nnn[nH]4)ccc3c2)oc2ccccc12` [Example 9, 1-{2-[5-Bromo-6-(1H-1,2,3,4-tetraazol-5-ylmethoxy)-2-naphthyl]-1-benzofuran-3-yl}-3-methyl-1-butanone] are 176 to 177 °C and 18.7 µM.
The corresponding values for `CCCCCc1c(-c2ccc3c(Br)c(OCC(=O)O)ccc3c2)oc2ccccc12` [Example 36, [1-Bromo-6-(3-pentyl-benzofuran-2-yl)-naphthalen-2-yloxy]-acetic acid] are 159 to 161 °C and 6.54 µM.
In turn, `CCCCC(=O)c1c(-c2ccc3cc(OC(Cc4ccccc4)C(=O)O)ccc3c2)oc2ccccc12` (stereo not shown) [Example 4, 2-{[6-(3-Pentanoyl-1-benzofuran-2-yl)-2-naphthyl]oxy}-3-phenylpropanoic acid] displayed a melting point of 144 to 145 °C. The same compound registered an IC50 in series [1] of 16.6 µM.
The matching figures for `O=C(O)COc1ccc2cc(-c3oc4ccccc4c3-c3ccccc3)ccc2c1-c1ccccc1` [Example 29, {[1-Phenyl-6-(3-phenyl-1-benzofuran-2-yl)-2-naphthyl]oxy}acetic acid]: 202 to 203 °C and 3.85 µM.
Regarding `CCCCC(=O)c1c(-c2ccc3c(Br)c(OCc4nnn[nH]4)ccc3c2)oc2ccc(Cl)cc12` [Example 30, 1-{2-[5-Bromo-6-(1H-tetrazol-5-ylmethoxy)-naphthalen-2-yl]-5-chloro-benzofuran-3-yl}-pentan-1-one], the melting point fell in the range of 133 to 135 °C. For the same compound, in series [2], the inhibition (commonly the relative decrease from the control value, in per cent) at 25 µM was found to be 46%.
For the compound `CCCCCc1c(-c2ccc3cc(OCC(=O)O)ccc3c2)oc2ccccc12` [Example 35, [6-(3-Pentyl-benzofuran-2-yl)-naphthalen-2-yloxy]-acetic acid], the melting point was 163 to 165 °C. Moreover, in series [2], the half-inhibitory concentration (IC50) worked out at 4.39 µM.
Turning to `O=C(CC1CCCC1)c1c(-c2ccc3c(Br)c(OCc4nnn[nH]4)ccc3c2)oc2ccccc12` [Example 13, 1-{2-[5-Bromo-6-(1H-1,2,3,4-tetraazol-5-ylmethoxy)-2-naphthyl]-1-benzofuran-3-yl}-2-cyclopentyl-1-ethanone], the melting point was 186 to 187 °C. The compound also showed a concentration for half-maximal inhibition (IC50) in series [1] of 10.1 µM.
Regarding `CCCCC(=O)c1c(-c2ccc3cc(OCC(=O)O)ccc3c2)oc2ccc(Cl)cc12` [Example 33, [6-(5-Chloro-3-pentanoyl-benzofuran-2-yl)-naphthalen-2-yloxy]-acetic acid], the melting point lay within 158 to 160 °C. Moreover, the IC50 in series [2] was determined as 10.4 µM.
In turn, `CCCCC(=O)c1c(-c2ccc3c(Br)c(OC(Cc4ccccc4)C(=O)O)ccc3c2)oc2ccccc12` (stereo not shown) [Example 19, 2-{[1-Bromo-6-(3-pentanoyl-1-benzofuran-2-yl)-2-naphthyl]oxy}-3-phenylpropanoic acid] displayed a melting point of 115 to 117 °C. In addition, the IC50 in series [2] is 6.2 µM.
The compound `O=C(O)COc1ccc2cc(-c3oc4ccccc4c3CCC3CCCC3)ccc2c1Br` [Example 11, 2-({1-Bromo-6-[3-(2-cyclopentylethyl)-1-benzofuran-2-yl]-2-naphthyl}oxy)acetic acid] yielded a melting point of 155 to 156 °C. Further, the inhibition at 25 µM in series [2] stood at 24%.
Consider `CCCCC(=O)c1c(-c2ccc3c(Br)c(OCC(=O)O)ccc3c2)oc2ccccc12` [Example 5, 2-{[1-Bromo-6-(3-pentanoyl-1-benzofuran-2-yl)-2-naphthyl]oxy}acetic acid], for which the melting point was in the range of 146 to 147 °C. Moreover, in series [2], the inhibition at 25 µM worked out at 47%.
The compound `CCCCC(=O)c1c(-c2ccc3c(Br)c(OCC(=O)O)ccc3c2)oc2ccc(Cl)cc12` [Example 31, [1-Bromo-6-(5-chloro-3-pentanoyl-benzofuran-2-yl)-naphthalen-2-yloxy]-acetic acid] came in with a melting point of 130 to 132 °C. The IC50 in series [2] amounted to 17.1 µM.
Take `CCCCC(=O)c1c(-c2ccc3c(-c4ccc(C(F)(F)F)cc4)c(OCC(=O)O)ccc3c2)oc2ccccc12` [Example 15, 2-({6-(3-Pentanoyl-1-benzofuran-2-yl)-1-[4-(trifluoromethyl)phenyl]-2-naphthyl}oxy) acetic acid, sodium salt]: the IC50 in series [1] turned out to be 8.2 µM.
Compound `CCCCC(=O)c1c(-c2ccc3c(Cl)c(OCC(=O)O)ccc3c2)oc2ccccc12` [Example 24, 2-{[1-Chloro-6-(3-pentanoyl-1-benzofuran-2-yl)-2-naphthyl]oxy}acetic acid] had a melting point of 142 to 143 °C. The compound further came in with an IC50 in series [1] of 11 µM.
As for `CCCCC(=O)c1c(-c2ccc3c(C)c(OC(Cc4ccccc4)C(=O)[O-])ccc3c2)oc2ccccc12.[Na+]` (stereo not shown) [Example 23, 2-{[1-Methyl-6-(3-pentanoyl-1-benzofuran-2-yl)-2-naphthyl]oxy}-3-phenylpropanoic acid, sodium salt], the melting point was 221 to 222 °C. Besides, the half-maximal inhibitory concentration (IC50) in series [1] was found to be 12.4 µM.
As for `CC(C)(C)CC(=O)c1c(-c2ccc3cc(OCC(=O)O)ccc3c2)oc2ccccc12` [Example 6, 2-({6-[3-(3,3-Dimethylbutanoyl)-1-benzofuran-2-yl]-2-naphthyl}oxy)acetic acid], the melting point fell in the range of 207 to 209 °C. Also, in series [1], the concentration for half-maximal inhibition (IC50) was 8.7 µM.
The corresponding values for `CCCCC(=O)c1c(-c2ccc3c(-c4ccccc4)c(OCc4nnn[nH]4)ccc3c2)oc2ccccc12` [Example 16, 1-{2-[5-Phenyl-6-(1H1,2,3,4-tetraazol-5-ylmethoxy)-2-naphthyl]-1-benzofuran-3-yl}-1-pentanone] are 160 to 164 °C and 10 µM.
The compound `CCCCC(=O)c1c(-c2ccc3cc(OCc4nnn[nH]4)ccc3c2)oc2ccccc12` [Example 3, 1-{2-[6-(1H-1,2,3,4-Tetraazol-5-ylmethoxy)-2-naphthyl]-1-benzofuran-3-yl}-1-pentanone] returned a melting point of 150 to 151 °C. The IC50 in series [2] stood at 12.7 µM.
`CCCCC(=O)c1c(-c2ccc3cc(OCC(=O)O)ccc3c2)oc2ccccc12` [Example 2, 2-{[6-(3-pentanoyl-1-benzofuran-2-yl)-2-naphthyl]oxy}acetic acid] displayed a melting point of 130 to 132 °C. For the same compound, the inhibition at 25 µM in series [2] came to 43%.

The values above are taken from US6599925B2 (Wyeth, priority 2001, dated 2003).
